Series [1] addresses T1, ExoU (Pseudomonas aeruginosa, UniProt O34208). Put plainly: ExoU in vitro phospholipase assay (real-time, dose-response). In kind it is biochemical. To be noted: for Inhibition of ExoU phospholipase activity (in words): real-time phospholipase assay, Fig 2A, 2B, 2E.
Series [2] addresses T1, ExoU. Description: nanoDSF thermal stability of ExoU. In kind it is binding. To be noted: 10 µM compound, read-out: Decrease of ExoU Tm. The procedure:
Thermal stability of recombinant His₆-ExoU was assessed using a Prometheus NT.48 instrument (NanoTemper Technologies, Cambridge, UK) without extrinsic dyes, as these were not compatible with the use of PIP2. ExoU was diluted to 5 µM in 20 mM TrisHCl-HCl (pH 8.2), 100 mM NaCl, and 10% (v/v) glycerol. To evaluate ligand effects, four samples were prepared: ExoU alone, ExoU with 5 µM PIP2, ExoU with 10 µM inhibitor, and ExoU with both 5 µM PIP2 and 10 µM indicated inhibitor, each maintaining 1% (v/v) DMSO. Ten microliters of each mixture were loaded into highsensitivity-sensitivity nanoDSF glass capillaries and subjected to a thermal ramp from 25 °C to 95 °C at 1 °C/min. Intrinsic tryptophan fluorescence emission at 330 nm and 350 nm was recorded continuously, and the ratio F₃₅₀/F₃₃₀ was plotted against temperature. Melting temperatures (Tₘ) were determined from the inflection point of the first derivative of the fluorescence ratio using the manufacturer’s analysis software. All conditions were measured in triplicate. Changes in melting temperature (Δ Tₘ) compared to DMSO, or DMSO PIP2 controls were plotted using GraphPad.
Supplementary file ppat.1014474.s008.tif: S7 Fig Nano differential scanning fluorimetry (nanoDSF) analysis of ExoU thermal stability in the presence of compounds. Raw melt curves of recombinant ExoU are shown in the absence (left) and presence (right) of PIP2 (5 µM) from three independent (A-C) experiments. Compounds were tested at 10 µM. Intrinsic tryptophan fluorescence emission was continuously monitored at 330 nm and 350 nm as the temperature increased, and the fluorescence ratio (F₃₅₀/F₃₃₀) was plotted against temperature. Melting temperatures (Tₘ) were calculated from the average inflection point of the first derivative of the fluorescence ratio using the manufacturer’s analysis software. (TIF)

In series [3] the test system is P. aeruginosa PA103. The settings on record: read-out: IC50 of bacterial growth.
Series [4] relates to primary human corneal epithelial cells.
A short description of series [5]: in vitro. To be noted: human, primary human corneal (limbal) epithelial cells.
For series [6], the system named is PA103-infected HCE-T cells. Description: LDH release assay in PA103-infected scratched HCE-T cells. Type of series: cell-based, human. To be noted: 2.5 µM compound, PA103 MOI 10, 4 hours, S6 Fig. An excerpt:
Percentage lysis was normalized to the maximal LDH release from the kit positive control (CyQUANT; Thermo Fisher). (TIF)
In general terms: LDH leaks from cells whose membrane has failed.

Where [7] appears, read: Fig 1B dose-response, PIP2 and ubiquitin present, read-out: IC50 for ExoU inhibition in vitro.

Where two headings read alike, the source gives them in different places. Where a SMILES comes first, the peptide text is derived from it.

T1 sequence (O34208 1-687): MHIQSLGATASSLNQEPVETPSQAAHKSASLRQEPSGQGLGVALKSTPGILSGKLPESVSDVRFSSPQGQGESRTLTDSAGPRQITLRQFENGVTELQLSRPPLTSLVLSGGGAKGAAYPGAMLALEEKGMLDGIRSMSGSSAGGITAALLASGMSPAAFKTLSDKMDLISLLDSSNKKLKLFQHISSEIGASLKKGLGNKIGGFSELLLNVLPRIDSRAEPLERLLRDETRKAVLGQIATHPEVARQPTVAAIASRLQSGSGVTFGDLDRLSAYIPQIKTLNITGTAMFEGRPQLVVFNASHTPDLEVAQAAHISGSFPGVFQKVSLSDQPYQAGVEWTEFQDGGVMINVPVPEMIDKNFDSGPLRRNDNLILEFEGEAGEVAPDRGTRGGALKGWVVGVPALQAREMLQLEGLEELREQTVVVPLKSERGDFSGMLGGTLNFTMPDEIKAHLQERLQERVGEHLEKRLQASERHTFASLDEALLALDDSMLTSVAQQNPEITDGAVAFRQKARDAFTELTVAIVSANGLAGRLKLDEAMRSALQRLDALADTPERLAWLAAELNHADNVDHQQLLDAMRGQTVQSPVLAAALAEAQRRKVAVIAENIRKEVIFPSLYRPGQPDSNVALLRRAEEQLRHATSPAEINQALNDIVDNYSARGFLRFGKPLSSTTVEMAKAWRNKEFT

Turning to `CC[C@H](C)CCCCC(=O)O` [(S)-6-methyloctanoic acid], the “Inhibition of ExoU phospholipase activity (in words)” value (from here on “Inhibition … (in words)”) in series [1] was “failed to inhibit ExoU”.

What is called IC50 is the point on the concentration scale where inhibition reaches its midpoint. Consider `[Cl][Bi]([Cl])[Cl]` [Bismuth chloride, bismuth chloride], for which the IC50 in series [1] (Fig 2C dose-response phospholipase assays, read-out: IC50 of bismuth-based ExoU inhibitors and subcitrate alone) was found to be 9.2 µM.

One may read the CC50 as the concentration at which the toxic effect on the cells reaches its halfway point. As to `CC[C@H](C)CCCCC(=O)N[C@@H](CCN)C(=O)N[C@H](C(=O)N[C@@H](CCN)C(=O)N[C@H]1CCNC(=O)[C@H]([C@@H](C)O)NC(=O)[C@H](CCN)NC(=O)[C@H](CCN)NC(=O)[C@H](CC(C)C)NC(=O)[C@@H](Cc2ccccc2)NC(=O)[C@H](CCN)NC1=O)[C@@H](C)O` [Pol, polymyxin B] (HELM PEPTIDE1{[CC[C@H](C)CCCCC(=O)[*:2]].[Dab].T.[Dab].[Dab].[Dab].[dF].L.[Dab].[Dab].T}$PEPTIDE1,PEPTIDE1,5:R3-11:R2$$$V2.0), the IC50 was 13.1 ± 1.7 µM in series [1] (setting [7]); 11.6 ± 0.9 µM in series [1] (Fig 3C, three-parameter fit, read-out: IC50 for ExoU inhibition, individual inhibitors or equimolar combinations); 13 µM in series [1] (IC50 for ExoU inhibition, polymyxin B and poltide analogues, Fig 2E); 2100 nM in series [3] (in DMEM/F-12 supplemented with 10% (v/v) FBS); 750 nM in series [3] (in LB). Also, the ΔTm at 10 µM was -3.8 °C in series [2] (absence of PIP2) and -6.2 °C in series [2] (with 5 µM PIP2). In addition, in series [4], the “LD50 (LDH release)” value amounted to 42.5 ± 10.6 µM. This compound also yielded a CC50 at 48 h in series [5] of 43 µM.

For `[H]/N=C(\N/C(=N/[H])NCCCCCCNC(=N)NC(=N)Nc1ccc(Cl)cc1)Nc1ccc(Cl)cc1` [chlorhexidine], the IC50 in series [1] (setting [7]) was 18.5 ± 3.3 µM.

In the case of `On1ccccc1=S.On1ccccc1=S.[Cu]` [copper pyrithione], in series [1], the “Inhibition … (in words)” value was “Neither copper pyrithione, nor pyrithione inhibited ExoU”.

Turning to `CC(=O)Oc1ccc(C(=C2CCCCC2)c2ccc(OC(C)=O)cc2)cc1` [cyclofenil], the IC50 in series [1] (setting [7]) amounted to 20.2 ± 2.8 µM.

With `CCN(CC)CCN(Cc1ccc(-c2ccc(C(F)(F)F)cc2)cc1)C(=O)Cn1c(SCc2ccc(F)cc2)nc(=O)c2c1CCC2` [darapladib], the “ExoU activity with arachidonoyl thio-PC substrate” value in series [1] (10 µM compound, S4 Fig) is listed as “did not inhibit ExoU activity”.

As for `COc1cc2c(cc1OC)[C@@H](Cc1cc(OC)c(OC)c(OC)c1)[N+](C)(CCCOC(=O)CC/C=C/CCC(=O)OCCC[N+]1(C)CCc3cc(OC)c(OC)cc3[C@H]1Cc1cc(OC)c(OC)c(OC)c1)CC2` (stereo partly drawn) [mivacurium chloride], the IC50 in series [1] (setting [7]) amounted to 6 ± 1.8 µM.

In the case of `[O-][n+]1ccccc1S` [pyrithione], the “Inhibition … (in words)” value in series [1] is reported as “Neither copper pyrithione, nor pyrithione inhibited ExoU”.

Regarding `O=S(=O)([O-])[O-].[Zn+2]` [zinc sulphate], the “Inhibition … (in words)” value in series [1] is reported as “inhibited ExoU phospholipase activity”. In addition, the “Mean lysis (LDH release)” value in series [6] is listed as 89%.

For the compound lauric acid–Asp–Thr–Dab [Poltide 2], the “IC50 for ExoU inhibition, polymyxin B and poltide analogues” value in series [1] (Fig 2E) is recorded as “no effect on ExoU activity”.

Take subcitrate: in series [1] (Fig 2C dose-response phospholipase assays), the “IC50 of bismuth-based ExoU inhibitors and subcitrate alone” value is “No inhibition”.

Source of the values: PMC13450841 (PLOS Pathogens, 2026).
